This is an account of results in publication PMC6009892, “A novel series of pyrazole-platinum(II) complexes as potential anti-cancer agents that induce cell cycle arrest and apoptosis in breast cancer cells” (Journal of Enzyme Inhibition and Medicinal Chemistry, 2018).

Common to all, as to format: cell-based, human
The test system of assay [1] is caspase-8 in MCF-7 breast cancer cells. Put plainly: FLICA caspase-8 activity, flow cytometry, MCF-7. The settings on record: MCF-7, 20 μM, 24 h. The method, then:
(§1) Caspase-8 activity was measured using the FLICA Caspase 8 Assay Kit (ImmunoChemistry Technologies, Bloomington, MN, USA), according to the manufacturer’s instructions. Briefly, cultured MCF-7 and MDA-MB-231 breast cancer cells (1 × 10^6) were washed with cold PBS twice and re-suspended in buffer. We added 5 µl of diluted FLICA reagent and 2 µl of Hoechst 33342 to 93 µl of cell suspension and mixed by pipetting. The cells were incubated for 60 min at 37°C. After incubation, the cells were washed twice in 400 µl of apoptosis wash buffer and centrifuged at 300 × g. After the last wash, we re-suspended the cells in 100 µl of apoptosis wash buffer supplemented with 10 µg/ml PI. Analysis was performed using the BD FACSCanto II flow cytometer, and the results were analysed with FACSDiva software (both from BD Biosciences Systems, San Jose, CA).
For orientation: Flow cytometry measures light scatter and fluorescence of single cells or particles in a stream.

The subject of assay [2] is MDA-MB-231 breast cancer cells. Put plainly: DNA fragmentation TUNEL assay, MDA-MB-231. Conditions: MDA-MB-231, 20 μM, 24 h. The method, then:
DNA fragmentation associated with apoptosis was examined by the terminal deoxynucleotidyltransferase (TdT)- mediated dUTP nick end labeling (TUNEL) method using a commercial assay kit (APO-Direct Kit; BD Pharmingen, San Diego, CA). After treatment, the cells were fixed with 1% paraformaldehyde in PBS (4°C, 30 min), washed in PBS, and permeabilised with ice-cold 70% ethanol. The APO-Direct Kit TUNEL assay was performed as described by the manufacturer. Briefly, the fixed cells were washed twice using the kit wash buffer, and after centrifugation the supernatant was discarded. The DNA labeling solution (containing TdT enzyme and FITC-dUTP) was added to the cell pellet, and the re-suspended mixture was incubated for 1 h at 37°C with occasional shaking. At the end of incubation time, rinse buffer was added, and after centrifugation the supernatant was discarded. We repeated the cell rinsing with rinse buffer, and then suspended the cell pellet in PI/RNase staining buffer. Cells were incubated at room temperature for 30 min and immediately analysed in a BD FACSCanto II flow cytometer. In total, 10,000 events were collected per test sample. The results were analysed with FACSDiva software (both from BD Biosciences Systems, San Jose, CA). The percentage of cells with distinctive apoptotic DNA strand breaks and distinguished by green fluorescent emission was calculated.

In assay [3] the test system is caspase-9 in MDA-MB-231 breast cancer cells. Put plainly: FLICA caspase-9 activity, flow cytometry, MDA-MB-231. The settings on record: MDA-MB-231, 20 μM, 24 h. As to the method: as §1, with “Caspase-9” for “Caspase-8”, “9” for “8”, “re-suspended” for “re-suspended the”
Assay [4] has as its system MCF-7 breast cancer cells. Put plainly: MTT cell viability assay, MCF-7. As to the method: (§2) MCF-7, MDA-MB-231 (both human breast cancer cell lines), and fibroblast cells were obtained from American Type Culture Collection (ATCC, Manassas, VA, USA). DMEM and FBS used in a cell culture were from Gibco (USA). Glutamine, penicillin, and streptomycin were obtained from Quality Biologicals Inc. (USA). DMEM media was blended with 50 units/ml of penicillin, 50 μg/ml of streptomycin, 10% of FBS. All cell lines were cultured in 5% CO2 and fully humidified at 37 °C. Cells were cultured in Costar flasks and sub-confluent cells were detached with 0.05% trypsin and 0.02% ethylenediaminetetraacetic acid in calcium-free phosphate-buffered saline (PBS), counted in hemocytometers, and plated at 5 × 10^5 cells/well of six-well plates (Thermo Scientific, New York, NY, USA) in 2 ml of growth medium (DMEM without phenol red with 10% CPSR1). Cells reached about 80% of confluency at day 2, and in most cases such cells were used for the assays.
(§3) The viability of cultured cells was decided through assaying the reduction of MTT to formazan. In brief, MCF-7, MDA-MB-231, and fibroblast cells line were seeded at an initial density of 1 × 10^5 cells per well. Then, the cells were incubated at 37 °C for 24 h. Subsequently, cultured cells were treated with a medium containing concentrations (5, 10, 20, 30, 40, and 50 μM) of PtPz1–PtPz6 for 24 h and 48 h. After the incubation period, MTT was added into all wells in the final concentration of 0.5 mg/ml. After that, the cells were incubated at 37 °C for 4 h. Then, by removing the medium, 200 μl of DMSO was added to all wells. As a result, insoluble formazan was dissolved in DMSO (0.5%). At 570 nm (630 nm as a reference), the absorbance was measured in an Evolution 201 reader (Thermo Scientific, Waltham, MA).
On the technique in general: Formazan colour is commonly taken as a measure of viable cells.

Assay [5] has as its system caspase-9 in MCF-7 breast cancer cells. Put plainly: FLICA caspase-9 activity, flow cytometry, MCF-7. The settings on record: MCF-7, 20 μM, 24 h. As to the method: as §1, with “Caspase-9” for “Caspase-8”, “9” for “8”, “re-suspended” for “re-suspended the”
For assay [6], the system named is MDA-MB-231 breast cancer cells. Put plainly: MTT cell viability assay, MDA-MB-231. As to the method:
as §2, §3

Assay [7] relates to caspase-3 in MDA-MB-231 breast cancer cells. Put plainly: FLICA caspase-3 activity, flow cytometry, MDA-MB-231. Conditions: MDA-MB-231, 20 μM, 24 h. As to the method:
as §1, with “Caspase-3” for “Caspase-8”, “3” for “8”, “cultured” for “cultured MCF-7 and”

Assay [8] relates to caspase-8 in MDA-MB-231 breast cancer cells. Put plainly: FLICA caspase-8 activity, flow cytometry, MDA-MB-231. Conditions: MDA-MB-231, 20 μM, 24 h. The method, then:
as §1

The structures appear in SMILES notation. Where two headings read alike, the source gives them in different places. Bounds are passed on as bounds.

Usually IC50 stands for the concentration needed to halve the response being measured. Turning to `N.N.[Cl][Pt][Cl]` [cisplatin, reference compound], the “percent of cells with active caspase-8” value worked out at 7.1% in assay [1] and 9.7% in assay [8]. Also, in assay [2], the “percent of TUNEL positive cells” value is 8.9%. Further, the “percent of cells with active caspase-9” value in assay [3] is reported as 7.3%; in assay [5], 8.2%. Also, the IC50 in assay [4] (MCF-7, 24 h incubation, 5-50 μM, read-out: IC50 (cell viability, MTT)) was above 50 µM; in assay [4] (MCF-7, 48 h incubation, 5-50 μM, read-out: IC50 (cell viability, MTT)) it was above 50 µM; in assay [4] (read-out: IC50 (additional test for cisplatin), MCF-7, 24 h, additional test in concentrations allowing to determine IC50), 93 ± 2 µM; in assay [4] (read-out: IC50 (additional test for cisplatin), MCF-7, 48 h, additional test in concentrations allowing to determine IC50), 78 ± 1 µM; in assay [6] (MDA-MB-231, 24 h incubation, 5-50 μM, read-out: IC50 (cell viability, MTT)) it was above 50 µM; in assay [6] (MDA-MB-231, 48 h incubation, 5-50 μM, read-out: IC50 (cell viability, MTT)), above 50 µM. Further, the IC50 in assay [6] (read-out: IC50 (additional test for cisplatin), MDA-MB-231, 24 h, additional test in concentrations allowing to determine IC50) turned out to be 82 ± 2 µM; in assay [6] (read-out: IC50 (additional test for cisplatin), MDA-MB-231, 48 h, additional test in concentrations allowing to determine IC50), 72 ± 1 µM. In addition, the “percent of cells with active caspase-3” value in assay [7] was found to be 6.4%.
